Source: patent publication US20100267561A1, “HERBICIDAL PYRIDAZINONE DERIVATIVES” (priority 2007, published 2010)

Columns and labels:
Assay type in all cases: in vivo
[1] = test system: winter wheat (TRZAW, Triticum aestivum); test: Test F mixtures with safener cloquintocet-mexyl, pre-/postemergence plant response; details: applied alone
[2] = test system: wild oat (AVEFA, Avena fatua); test: as above; details: applied alone
[3] = test system: bearded (Brdd.) sprangletop (Leptochloa fascicularis); test: Test D flooded paddy plant response; details: Flood, scale 0 to 100 (0 no effect, 100 complete control), 21 days
Source text: (§1) Three plastic pots (ca. 16-cm diameter) for each application rate were partially filled with sterilized Tama silt loam soil comprising a 35:50:15 ratio of sand, silt and clay and 2.6% organic matter. Separate plantings for each of the three pots were as follows. Seeds from the U.S. of ducksalad (Heteranthera limosa), umbrella sedge (Cyperus difformis) and purple redstem (Ammannia coccinea), were planted into one 16-cm pot for each rate. Seeds from the U.S. of rice flatsedge (Cyperus iria), bearded (Brdd.) sprangletop (Leptochloa fascicularis), one stand of 9 or 10 water-seeded rice seedlings (Oryza sativa cv. ‘Japonica—M202’), and one stand of 6 transplanted rice seedlings (Oryza sativa cv. ‘Japonica—M202’) were planted into one 16-cm pot for each rate. Seeds from the U.S. of barnyardgrass (Echinochloa crus-galli), late watergrass (Echinochloa oryzicola), early watergrass (Echinochloa oryzoides) and junglerice (Echinochloa colona) were planted into one 16-cm pot for each rate. Plantings were sequential so that crop and weed species were at the 2.0 to 2.5-leaf stage at time of treatment.
(§2) Potted plants were grown in a greenhouse with day/night temperature settings of 30/27° C., and supplemental balanced lighting was provided to maintain a 16-hour photoperiod. Test pots were maintained in the greenhouse until test completion.
(§3) At time of treatment, test pots were flooded to 3 cm above the soil surface, treated by application of test compounds directly to the paddy water, and then maintained at that water depth for the duration of the test. Effects of treatments on rice and weeds were visually evaluated by comparison to untreated controls after 21 days. Plant response ratings, summarized in Table D, are based on a scale of 0 to 100 where 0 is no effect and 100 is complete control. A dash (-) response means no test result.

[4] = test system: junglerice (Echinochloa colona); test: Test D flooded paddy plant response; details: Flood, scale 0 to 100 (0 no effect, 100 complete control), 21 days
Source text: as §1, §2, §3

[5] = test system: early watergrass (Echinochloa oryzoides); test: Test D flooded paddy plant response; details: Flood, scale 0 to 100 (0 no effect, 100 complete control), 21 days
Source text: as §1, §2, §3

[6] = test system: barnyardgrass (Echinochloa crus-galli); test: Test D flooded paddy plant response; details: Flood, scale 0 to 100 (0 no effect, 100 complete control), 21 days
Source text: as §1, §2, §3

[7] = test system: purple redstem (Ammannia coccinea); test: Test D flooded paddy plant response; details: Flood, scale 0 to 100 (0 no effect, 100 complete control), 21 days
Source text: as §1, §2, §3

[8] = test system: rice flatsedge (Cyperus iria); test: Test D flooded paddy plant response; details: Flood, scale 0 to 100 (0 no effect, 100 complete control), 21 days
Source text: as §1, §2, §3

[9] = test system: late watergrass (Echinochloa oryzicola); test: Test D flooded paddy plant response; details: Flood, scale 0 to 100 (0 no effect, 100 complete control), 21 days
Source text: as §1, §2, §3

[10] = test system: water-seeded rice seedlings (Oryza sativa cv. ‘Japonica—M202’); test: Test D flooded paddy plant response; details: Flood, scale 0 to 100 (0 no effect, 100 complete control), 21 days
Source text: as §1, §2, §3

[11] = test system: umbrella sedge (Cyperus difformis); test: Test D flooded paddy plant response; details: Flood, scale 0 to 100 (0 no effect, 100 complete control), 21 days
Source text: as §1, §2, §3

[12] = test system: transplanted rice seedlings (Oryza sativa cv. ‘Japonica—M202’); test: Test D flooded paddy plant response; details: Flood, scale 0 to 100 (0 no effect, 100 complete control), 21 days
Source text: as §1, §2, §3

[13] = test system: ducksalad (Heteranthera limosa); test: Test D flooded paddy plant response; details: Flood, scale 0 to 100 (0 no effect, 100 complete control), 21 days
Source text: as §1, §2, §3

CCc1cc(-c2ccc(C(F)(F)F)cc2)nn1-c1c(OC(=O)OC(C)C)cnn(C)c1=O [Compound 12]
TRZAW Obsd. (observed effect) plant response rating, scale 0 to 100 ([1]; postemergence, 4 g a.i./ha): 0
TRZAW Obsd. (observed effect) plant response rating, scale 0 to 100 ([1]; postemergence, 8 g a.i./ha): 18
TRZAW Obsd. (observed effect) plant response rating, scale 0 to 100 ([1]; postemergence, 16 g a.i./ha): 77
TRZAW Obsd. (observed effect) plant response rating, scale 0 to 100 ([1]; preemergence, 4 g a.i./ha): 0
TRZAW Obsd. (observed effect) plant response rating, scale 0 to 100 ([1]; preemergence, 8 g a.i./ha): 75
TRZAW Obsd. (observed effect) plant response rating, scale 0 to 100 ([1]; preemergence, 16 g a.i./ha): 97
AVEFA Obsd. (observed effect) plant response rating, scale 0 to 100 ([2]; postemergence, 4 g a.i./ha): 13
AVEFA Obsd. (observed effect) plant response rating, scale 0 to 100 ([2]; postemergence, 8 g a.i./ha): 98
AVEFA Obsd. (observed effect) plant response rating, scale 0 to 100 ([2]; postemergence, 16 g a.i./ha): 100
AVEFA Obsd. (observed effect) plant response rating, scale 0 to 100 ([2]; preemergence, 4 g a.i./ha): 7
AVEFA Obsd. (observed effect) plant response rating, scale 0 to 100 ([2]; preemergence, 8 g a.i./ha): 92
AVEFA Obsd. (observed effect) plant response rating, scale 0 to 100 ([2]; preemergence, 16 g a.i./ha): 96

CCc1cc(-c2ccc(Cl)cc2)nn1-c1c(O)cnn(C)c1=O [Compound 21]
Plant response rating, Sprangletop, Brdd. ([3]; 16 g ai/ha): 30
Plant response rating, Sprangletop, Brdd. ([3]; 32 g ai/ha): 30
Plant response rating, Sprangletop, Brdd. ([3]; 64 g ai/ha): 80
Plant response rating, Sprangletop, Brdd. ([3]; 125 g ai/ha): 100
Plant response rating, Sprangletop, Brdd. ([3]; 250 g ai/ha): 100
Plant response rating, Junglerice ([4]; 16 g ai/ha): 0
Plant response rating, Junglerice ([4]; 32 g ai/ha): 70
Plant response rating, Junglerice ([4]; 64 g ai/ha): 100
Plant response rating, Junglerice ([4]; 125 g ai/ha): 100
Plant response rating, Junglerice ([4]; 250 g ai/ha): 100
Plant response rating, Watergrass, Early ([5]; 16 g ai/ha): 0
Plant response rating, Watergrass, Early ([5]; 32 g ai/ha): 40
Plant response rating, Watergrass, Early ([5]; 64 g ai/ha): 65
Plant response rating, Watergrass, Early ([5]; 125 g ai/ha): 100
Plant response rating, Watergrass, Early ([5]; 250 g ai/ha): 100
Plant response rating, Barnyardgrass ([6]; 16 g ai/ha): 0
Plant response rating, Barnyardgrass ([6]; 32 g ai/ha): 60
Plant response rating, Barnyardgrass ([6]; 64 g ai/ha): 100
Plant response rating, Barnyardgrass ([6]; 125 g ai/ha): 100
Plant response rating, Barnyardgrass ([6]; 250 g ai/ha): 100
Plant response rating, Redstem, Purple ([7]; 16 g ai/ha): 0
Plant response rating, Redstem, Purple ([7]; 32 g ai/ha): 0
Plant response rating, Redstem, Purple ([7]; 64 g ai/ha): 0
Plant response rating, Redstem, Purple ([7]; 125 g ai/ha): 0
Plant response rating, Redstem, Purple ([7]; 250 g ai/ha): 0
Plant response rating, Flatsedge, Rice ([8]; 16 g ai/ha): 0
Plant response rating, Flatsedge, Rice ([8]; 32 g ai/ha): 0
Plant response rating, Flatsedge, Rice ([8]; 64 g ai/ha): 70
Plant response rating, Flatsedge, Rice ([8]; 125 g ai/ha): 70
Plant response rating, Flatsedge, Rice ([8]; 250 g ai/ha): 70
Plant response rating, Watergrass, Late ([9]; 16 g ai/ha): 0
Plant response rating, Watergrass, Late ([9]; 32 g ai/ha): 30
Plant response rating, Watergrass, Late ([9]; 64 g ai/ha): 60
Plant response rating, Watergrass, Late ([9]; 125 g ai/ha): 100
Plant response rating, Watergrass, Late ([9]; 250 g ai/ha): 100
Plant response rating, Rice, Water Seeded ([10]; 16 g ai/ha): 0
Plant response rating, Rice, Water Seeded ([10]; 32 g ai/ha): 20
Plant response rating, Rice, Water Seeded ([10]; 64 g ai/ha): 35
Plant response rating, Rice, Water Seeded ([10]; 125 g ai/ha): 65
Plant response rating, Rice, Water Seeded ([10]; 250 g ai/ha): 75
Plant response rating, Sedge, Umbrella ([11]; 16 g ai/ha): 0
Plant response rating, Sedge, Umbrella ([11]; 32 g ai/ha): 0
Plant response rating, Sedge, Umbrella ([11]; 64 g ai/ha): 0
Plant response rating, Sedge, Umbrella ([11]; 125 g ai/ha): 0
Plant response rating, Sedge, Umbrella ([11]; 250 g ai/ha): 0
Plant response rating, Rice, Transplanted ([12]; 16 g ai/ha): 0
Plant response rating, Rice, Transplanted ([12]; 32 g ai/ha): 0
Plant response rating, Rice, Transplanted ([12]; 64 g ai/ha): 0
Plant response rating, Rice, Transplanted ([12]; 125 g ai/ha): 50
Plant response rating, Rice, Transplanted ([12]; 250 g ai/ha): 65
Plant response rating, Ducksalad ([13]; 16 g ai/ha): 0
Plant response rating, Ducksalad ([13]; 32 g ai/ha): 0
Plant response rating, Ducksalad ([13]; 64 g ai/ha): 0
Plant response rating, Ducksalad ([13]; 125 g ai/ha): 0
Plant response rating, Ducksalad ([13]; 250 g ai/ha): 0

CCCc1cc(-c2ccc(Cl)cc2)nn1-c1c(O)cnn(C)c1=O [Compound 43]
Plant response rating, Sprangletop, Brdd. ([3]; 16 g ai/ha): 0
Plant response rating, Sprangletop, Brdd. ([3]; 32 g ai/ha): 0
Plant response rating, Sprangletop, Brdd. ([3]; 64 g ai/ha): 0
Plant response rating, Sprangletop, Brdd. ([3]; 125 g ai/ha): 0
Plant response rating, Sprangletop, Brdd. ([3]; 250 g ai/ha): 20
Plant response rating, Junglerice ([4]; 16 g ai/ha): 0
Plant response rating, Junglerice ([4]; 32 g ai/ha): 0
Plant response rating, Junglerice ([4]; 64 g ai/ha): 60
Plant response rating, Junglerice ([4]; 125 g ai/ha): 100
Plant response rating, Junglerice ([4]; 250 g ai/ha): 100
Plant response rating, Watergrass, Early ([5]; 16 g ai/ha): 0
Plant response rating, Watergrass, Early ([5]; 32 g ai/ha): 0
Plant response rating, Watergrass, Early ([5]; 64 g ai/ha): 60
Plant response rating, Watergrass, Early ([5]; 125 g ai/ha): 70
Plant response rating, Watergrass, Early ([5]; 250 g ai/ha): 100
Plant response rating, Barnyardgrass ([6]; 16 g ai/ha): 0
Plant response rating, Barnyardgrass ([6]; 32 g ai/ha): 20
Plant response rating, Barnyardgrass ([6]; 64 g ai/ha): 60
Plant response rating, Barnyardgrass ([6]; 125 g ai/ha): 100
Plant response rating, Barnyardgrass ([6]; 250 g ai/ha): 100
Plant response rating, Redstem, Purple ([7]; 16 g ai/ha): 0
Plant response rating, Redstem, Purple ([7]; 32 g ai/ha): 0
Plant response rating, Redstem, Purple ([7]; 64 g ai/ha): 0
Plant response rating, Redstem, Purple ([7]; 125 g ai/ha): 0
Plant response rating, Redstem, Purple ([7]; 250 g ai/ha): 0
Plant response rating, Flatsedge, Rice ([8]; 16 g ai/ha): 0
Plant response rating, Flatsedge, Rice ([8]; 32 g ai/ha): 0
Plant response rating, Flatsedge, Rice ([8]; 64 g ai/ha): 0
Plant response rating, Flatsedge, Rice ([8]; 125 g ai/ha): 0
Plant response rating, Flatsedge, Rice ([8]; 250 g ai/ha): 0
Plant response rating, Watergrass, Late ([9]; 16 g ai/ha): 0
Plant response rating, Watergrass, Late ([9]; 32 g ai/ha): 0
Plant response rating, Watergrass, Late ([9]; 64 g ai/ha): 30
Plant response rating, Watergrass, Late ([9]; 125 g ai/ha): 65
Plant response rating, Watergrass, Late ([9]; 250 g ai/ha): 100
Plant response rating, Rice, Water Seeded ([10]; 16 g ai/ha): 0
Plant response rating, Rice, Water Seeded ([10]; 32 g ai/ha): 0
Plant response rating, Rice, Water Seeded ([10]; 64 g ai/ha): 0
Plant response rating, Rice, Water Seeded ([10]; 125 g ai/ha): 30
Plant response rating, Rice, Water Seeded ([10]; 250 g ai/ha): 35
Plant response rating, Sedge, Umbrella ([11]; 16 g ai/ha): 0
Plant response rating, Sedge, Umbrella ([11]; 32 g ai/ha): 0
Plant response rating, Sedge, Umbrella ([11]; 64 g ai/ha): 0
Plant response rating, Sedge, Umbrella ([11]; 125 g ai/ha): 0
Plant response rating, Sedge, Umbrella ([11]; 250 g ai/ha): 0
Plant response rating, Rice, Transplanted ([12]; 16 g ai/ha): 0
Plant response rating, Rice, Transplanted ([12]; 32 g ai/ha): 0
Plant response rating, Rice, Transplanted ([12]; 64 g ai/ha): 0
Plant response rating, Rice, Transplanted ([12]; 125 g ai/ha): 10
Plant response rating, Rice, Transplanted ([12]; 250 g ai/ha): 35
Plant response rating, Ducksalad ([13]; 16 g ai/ha): 0
Plant response rating, Ducksalad ([13]; 32 g ai/ha): 0
Plant response rating, Ducksalad ([13]; 64 g ai/ha): 0
Plant response rating, Ducksalad ([13]; 125 g ai/ha): 0
Plant response rating, Ducksalad ([13]; 250 g ai/ha): 0
